Assay results taken from publication PMC6199744, “Development of Chemical Proteomics for the Folateome and Analysis of the Kinetoplastid Folateome” (ACS Infectious Diseases, 2018).
Like-named read-outs stand apart in the source and are kept apart here.

Experiments:
Type in all cases: binding
[1] = biological target: T1, HeLa cell extract proteins (Homo sapiens, UniProt P23284)
T1 construct: endogenous in cells; host or cells: HeLa cell extract

[2] = biological target: T2, HeLa cell extract proteins (Homo sapiens, UniProt P26447)
T2 construct: endogenous in cells; host or cells: HeLa cell extract
T2 sequence (P26447 whole entry): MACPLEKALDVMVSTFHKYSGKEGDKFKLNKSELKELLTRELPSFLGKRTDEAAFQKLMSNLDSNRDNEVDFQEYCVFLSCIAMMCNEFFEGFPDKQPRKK

[3] = biological target: T3, HeLa cell extract proteins (Homo sapiens, UniProt O15427)
T3 construct: endogenous in cells; host or cells: HeLa cell extract
T3 sequence (O15427 1-465): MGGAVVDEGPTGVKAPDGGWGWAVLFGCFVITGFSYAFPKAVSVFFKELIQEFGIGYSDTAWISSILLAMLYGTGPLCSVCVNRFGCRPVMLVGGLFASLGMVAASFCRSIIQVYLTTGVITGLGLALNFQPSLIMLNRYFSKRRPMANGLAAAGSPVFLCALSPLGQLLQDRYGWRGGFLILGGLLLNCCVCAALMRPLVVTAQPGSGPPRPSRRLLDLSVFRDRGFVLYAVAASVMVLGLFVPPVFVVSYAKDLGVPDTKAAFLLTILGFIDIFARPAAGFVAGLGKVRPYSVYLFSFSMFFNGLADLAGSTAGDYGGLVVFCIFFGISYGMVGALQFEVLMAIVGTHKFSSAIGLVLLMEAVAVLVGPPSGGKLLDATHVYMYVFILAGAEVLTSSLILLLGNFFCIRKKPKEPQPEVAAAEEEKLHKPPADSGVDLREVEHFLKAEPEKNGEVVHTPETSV

[4] = biological target: T4, HeLa cell extract proteins (Homo sapiens, UniProt P00441)
T4 construct: endogenous in cells; host or cells: HeLa cell extract
T4 sequence (P00441 whole entry): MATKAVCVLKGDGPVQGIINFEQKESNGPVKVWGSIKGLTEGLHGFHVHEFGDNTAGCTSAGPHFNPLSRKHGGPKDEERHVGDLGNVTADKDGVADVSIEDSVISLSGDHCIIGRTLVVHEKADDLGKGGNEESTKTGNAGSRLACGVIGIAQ

[5] = biological target: T5, HeLa cell extract proteins (Homo sapiens, UniProt P52597)
T5 construct: endogenous in cells; host or cells: HeLa cell extract
T5 sequence (P52597 1-415): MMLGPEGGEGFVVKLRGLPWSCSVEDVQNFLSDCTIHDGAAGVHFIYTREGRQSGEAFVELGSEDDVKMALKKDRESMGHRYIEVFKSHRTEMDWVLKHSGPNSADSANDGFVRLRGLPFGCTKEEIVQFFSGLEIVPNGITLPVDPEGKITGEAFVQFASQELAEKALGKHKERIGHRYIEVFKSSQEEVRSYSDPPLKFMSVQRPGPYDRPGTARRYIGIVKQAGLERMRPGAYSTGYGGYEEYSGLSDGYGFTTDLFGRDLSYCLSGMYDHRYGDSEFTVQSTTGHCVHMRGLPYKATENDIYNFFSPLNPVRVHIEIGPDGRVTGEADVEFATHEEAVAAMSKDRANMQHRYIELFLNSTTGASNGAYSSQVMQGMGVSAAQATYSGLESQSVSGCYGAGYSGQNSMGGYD

[6] = biological target: T6, HeLa cell extract proteins (Homo sapiens, UniProt P17987)
T6 construct: endogenous in cells; host or cells: HeLa cell extract
T6 sequence (P17987 whole entry): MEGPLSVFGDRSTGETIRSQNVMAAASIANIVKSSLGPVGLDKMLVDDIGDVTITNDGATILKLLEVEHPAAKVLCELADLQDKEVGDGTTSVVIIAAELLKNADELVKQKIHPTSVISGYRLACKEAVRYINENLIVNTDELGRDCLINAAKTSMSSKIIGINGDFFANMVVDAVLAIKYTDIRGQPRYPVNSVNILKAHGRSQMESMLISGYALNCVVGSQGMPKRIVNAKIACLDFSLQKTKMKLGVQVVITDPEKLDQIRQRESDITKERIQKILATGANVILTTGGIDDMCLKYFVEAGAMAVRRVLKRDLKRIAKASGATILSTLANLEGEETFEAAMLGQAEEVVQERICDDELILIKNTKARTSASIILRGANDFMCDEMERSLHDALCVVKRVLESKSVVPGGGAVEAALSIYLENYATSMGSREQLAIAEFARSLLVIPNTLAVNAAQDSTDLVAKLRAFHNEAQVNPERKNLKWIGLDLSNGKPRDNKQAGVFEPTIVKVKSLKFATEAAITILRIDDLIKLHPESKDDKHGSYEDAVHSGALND

[7] = biological target: T7, HeLa cell extract proteins (Homo sapiens, UniProt Q13085)
T7 construct: endogenous in cells; host or cells: HeLa cell extract

[8] = biological target: T8, HeLa cell extract proteins (Homo sapiens, UniProt O60762)
T8 construct: endogenous in cells; host or cells: HeLa cell extract
T8 sequence (O60762 whole entry): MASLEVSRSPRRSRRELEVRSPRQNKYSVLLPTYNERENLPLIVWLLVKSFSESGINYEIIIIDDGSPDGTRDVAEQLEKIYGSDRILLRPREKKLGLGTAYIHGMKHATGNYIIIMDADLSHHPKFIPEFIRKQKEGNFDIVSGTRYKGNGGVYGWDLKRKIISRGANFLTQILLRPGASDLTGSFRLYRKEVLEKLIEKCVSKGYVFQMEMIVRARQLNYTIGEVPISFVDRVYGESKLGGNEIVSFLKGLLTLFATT

[9] = biological target: T9, HeLa cell extract proteins (Homo sapiens, UniProt P37837)
T9 construct: endogenous in cells; host or cells: HeLa cell extract
T9 sequence (P37837 1-337): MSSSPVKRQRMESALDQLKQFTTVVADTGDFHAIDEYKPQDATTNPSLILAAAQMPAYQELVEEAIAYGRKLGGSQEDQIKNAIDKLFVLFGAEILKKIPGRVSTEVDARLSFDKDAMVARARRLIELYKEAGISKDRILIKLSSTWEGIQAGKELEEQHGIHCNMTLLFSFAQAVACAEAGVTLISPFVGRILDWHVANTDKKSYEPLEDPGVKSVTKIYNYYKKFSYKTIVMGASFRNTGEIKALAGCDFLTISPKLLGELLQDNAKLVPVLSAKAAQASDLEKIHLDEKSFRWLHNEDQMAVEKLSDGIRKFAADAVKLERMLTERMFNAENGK

[10] = biological target: T10, HeLa cell extract proteins (Homo sapiens, UniProt Q99460)
T10 construct: endogenous in cells; host or cells: HeLa cell extract
T10 sequence (Q99460 whole entry): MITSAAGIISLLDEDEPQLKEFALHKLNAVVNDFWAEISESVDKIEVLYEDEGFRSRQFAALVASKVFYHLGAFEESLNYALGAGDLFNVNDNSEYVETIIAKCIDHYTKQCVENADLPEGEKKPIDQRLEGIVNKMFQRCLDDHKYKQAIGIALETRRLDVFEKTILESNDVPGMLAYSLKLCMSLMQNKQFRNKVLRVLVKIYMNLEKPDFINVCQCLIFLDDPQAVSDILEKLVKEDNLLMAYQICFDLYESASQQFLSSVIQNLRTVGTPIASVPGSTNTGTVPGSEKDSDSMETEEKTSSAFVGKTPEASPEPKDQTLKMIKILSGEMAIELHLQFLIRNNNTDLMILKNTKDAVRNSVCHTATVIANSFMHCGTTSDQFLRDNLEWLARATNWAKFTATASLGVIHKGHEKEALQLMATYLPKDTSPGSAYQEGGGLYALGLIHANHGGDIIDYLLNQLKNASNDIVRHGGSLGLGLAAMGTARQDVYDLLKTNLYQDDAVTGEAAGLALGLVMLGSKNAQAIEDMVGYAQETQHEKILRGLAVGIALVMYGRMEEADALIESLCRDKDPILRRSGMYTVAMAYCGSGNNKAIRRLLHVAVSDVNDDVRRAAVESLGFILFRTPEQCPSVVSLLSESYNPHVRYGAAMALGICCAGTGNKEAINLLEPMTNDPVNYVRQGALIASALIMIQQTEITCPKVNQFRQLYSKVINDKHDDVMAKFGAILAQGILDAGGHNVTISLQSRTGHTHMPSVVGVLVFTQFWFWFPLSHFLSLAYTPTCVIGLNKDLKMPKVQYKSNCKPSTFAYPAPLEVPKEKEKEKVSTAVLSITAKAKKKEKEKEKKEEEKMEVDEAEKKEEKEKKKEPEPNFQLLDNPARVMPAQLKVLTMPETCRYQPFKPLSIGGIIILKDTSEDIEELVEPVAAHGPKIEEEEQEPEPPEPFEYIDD

[11] = biological target: T11, HeLa cell extract proteins (Homo sapiens, UniProt P04075)
T11 construct: endogenous in cells; host or cells: HeLa cell extract
T11 sequence (P04075 1-364): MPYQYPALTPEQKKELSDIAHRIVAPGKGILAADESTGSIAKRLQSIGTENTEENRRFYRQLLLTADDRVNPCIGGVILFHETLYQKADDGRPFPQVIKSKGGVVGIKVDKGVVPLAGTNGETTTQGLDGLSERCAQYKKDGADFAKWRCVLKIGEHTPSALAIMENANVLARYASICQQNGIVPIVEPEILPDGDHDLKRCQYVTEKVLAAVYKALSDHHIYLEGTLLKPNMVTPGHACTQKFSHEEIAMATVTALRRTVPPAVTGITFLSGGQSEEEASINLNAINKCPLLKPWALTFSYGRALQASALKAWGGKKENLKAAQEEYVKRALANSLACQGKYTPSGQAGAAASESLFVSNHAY

[12] = HeLa, protein PPIB (PEPT[…] B PRECURSOR.)
[13] = HeLa, protein TALDO1 (TRANSALDOLASE.)
[14] = HeLa, protein ALDOA (45 KDA PROTEIN.)

T1 sequence (P23284 34-216): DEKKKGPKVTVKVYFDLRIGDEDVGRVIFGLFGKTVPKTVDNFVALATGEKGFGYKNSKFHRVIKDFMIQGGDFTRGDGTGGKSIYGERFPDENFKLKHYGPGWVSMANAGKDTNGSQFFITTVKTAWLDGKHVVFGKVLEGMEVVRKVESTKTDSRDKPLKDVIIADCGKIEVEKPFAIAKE

Structure (SMILES)	fold changes relative to vehicle control ([1]; HeLa, captured protein PPIB)	fold changes relative to vehicle control ([2]; protein S100A4, HeLa)	fold changes relative to vehicle control ([3]; HeLa, protein SLC16A3)	fold changes relative to vehicle control ([4]; HeLa, protein SOD1)	fold changes relative to vehicle control ([5]; HeLa, captured protein HNRNPF)	fold changes relative to vehicle control ([6]; HeLa, protein TCP1)	fold changes relative to vehicle control ([7]; HeLa, captured protein ACACA)	fold changes relative to vehicle control ([8]; protein DPM1, HeLa)	fold changes relative to vehicle control ([9]; protein TALDO1, HeLa)	fold changes relative to vehicle control ([10]; protein PSMD1, HeLa)	fold changes relative to vehicle control ([11]; protein ALDOA, HeLa)	fold changes relative to vehicle control [1, 12]	fold changes relative to vehicle control ([4]; protein SOD1, HeLa)	fold changes relative to vehicle control ([5]; HeLa, protein HNRNPF)	fold changes relative to vehicle control ([6]; protein TCP1, HeLa)	fold changes relative to vehicle control ([7]; protein ACACA, HeLa)	fold changes relative to vehicle control ([8]; captured protein DPM1, HeLa)	fold changes relative to vehicle control [9, 13]	fold changes relative to vehicle control [11, 14]	further results
Nc1nc2c(c(=O)[nH]1)N(C=O)C(CNc1ccc(C(=O)N[C@@H](CCC(=O)O)C(=O)O)cc1)CN2 (some centres unmarked) [LEU, leucovorin]	1	0.95	0.96	1.01	0.98	1.04	1.02	0.94	0.88	0.88	0.98	–	–	–	–	–	–	–	–	–
Nc1nc2[nH]cc(CCc3ccc(C(=O)N[C@@H](CCC(=O)O)C(=O)O)cc3)c2c(=O)[nH]1 [PTX, pemetrexed]	–	–	–	–	–	–	–	–	–	–	–	–	–	–	–	–	–	–	–	fold changes relative to vehicle control [1]: 1.11; fold changes relative to vehicle control [2]: 0.99; fold changes relative to vehicle control [3]: 0.85; fold changes relative to vehicle control [4]: 1.22; fold changes relative to vehicle control [5]: 0.87; fold changes relative to vehicle control [6]: 1.08; fold changes relative to vehicle control [7]: 1.05; fold changes relative to vehicle control [8]: 0.88; fold changes relative to vehicle control [9]: 1.04; fold changes relative to vehicle control [10]: 0.99; fold changes relative to vehicle control [11]: 1.21
CCCCCCOc1ccc(Cc2cnc(N)nc2N)cc1 [compound 1]	–	0.83	0.83	–	–	–	–	–	–	1.3	–	1.37 fold	1.47	0.95	1.22	1.09	0.89	1.32 fold	1.38 fold	–
CCCCCCOc1cccc(Cc2cnc(N)nc2N)c1 [compound 2]	–	1.43	0.94	–	–	–	–	–	–	1.78	–	2.04 fold	2.11	0.88	1.65	1.06	0.84	2.2 fold	2.49 fold	–
Nc1nc2cccc(-c3ccccc3)c2n1Cc1ccc(Cl)c(Cl)c1 [compound 3]	–	1.15	0.94	–	–	–	–	–	–	1.14	–	1.25 fold	0.8	1.36	1.09	1.04	1.02	0.83 fold	0.85 fold	–
NCCOCCOCC(=O)Nc1nc2ncc(CNc3ccc(C(=O)NC(CCC(=O)O)C(=O)O)cc3)nc2c(=O)[nH]1 (centres unmarked) [compound 6]	1.49	1.18	0.85	1.44	0.92	1.32	1.12	1.1	1.22	1.08	1.34	–	–	–	–	–	–	–	–	–
NCCCNc1ccc(C(=O)NC(CCC(=O)O)C(=O)O)cc1 (centres unmarked) [compound 7]	1.22	1.03	0.94	1.08	0.95	1.07	1.17	1.04	0.92	1.16	1.02	–	–	–	–	–	–	–	–	–
